Molecules are shown by their SMILES. Structures can show the parent of a compound that is named as a salt.

This assay concerns the target T1, recombinant guanylate cyclase reporter cell line (Rattus norvegicus, UniProt P19686+P20595).
T1 construct: expressed in transfected cells
T1 sequence (P20595 1-619): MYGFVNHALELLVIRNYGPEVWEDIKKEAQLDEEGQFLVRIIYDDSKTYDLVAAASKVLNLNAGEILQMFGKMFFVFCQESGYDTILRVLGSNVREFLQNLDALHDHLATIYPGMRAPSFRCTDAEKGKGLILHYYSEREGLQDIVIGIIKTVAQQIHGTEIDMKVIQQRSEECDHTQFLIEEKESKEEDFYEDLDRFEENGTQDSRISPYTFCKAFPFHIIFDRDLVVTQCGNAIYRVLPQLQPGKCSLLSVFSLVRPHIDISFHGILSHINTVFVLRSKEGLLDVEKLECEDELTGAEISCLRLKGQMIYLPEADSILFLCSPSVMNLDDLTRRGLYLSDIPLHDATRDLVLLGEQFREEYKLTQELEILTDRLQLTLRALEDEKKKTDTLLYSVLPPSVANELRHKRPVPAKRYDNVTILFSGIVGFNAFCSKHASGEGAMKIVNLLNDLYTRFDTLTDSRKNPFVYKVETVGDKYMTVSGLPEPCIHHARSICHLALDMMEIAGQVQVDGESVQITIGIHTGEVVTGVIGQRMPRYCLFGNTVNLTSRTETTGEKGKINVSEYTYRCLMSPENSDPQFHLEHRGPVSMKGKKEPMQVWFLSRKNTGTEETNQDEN
T1 sequence (P19686 1-690): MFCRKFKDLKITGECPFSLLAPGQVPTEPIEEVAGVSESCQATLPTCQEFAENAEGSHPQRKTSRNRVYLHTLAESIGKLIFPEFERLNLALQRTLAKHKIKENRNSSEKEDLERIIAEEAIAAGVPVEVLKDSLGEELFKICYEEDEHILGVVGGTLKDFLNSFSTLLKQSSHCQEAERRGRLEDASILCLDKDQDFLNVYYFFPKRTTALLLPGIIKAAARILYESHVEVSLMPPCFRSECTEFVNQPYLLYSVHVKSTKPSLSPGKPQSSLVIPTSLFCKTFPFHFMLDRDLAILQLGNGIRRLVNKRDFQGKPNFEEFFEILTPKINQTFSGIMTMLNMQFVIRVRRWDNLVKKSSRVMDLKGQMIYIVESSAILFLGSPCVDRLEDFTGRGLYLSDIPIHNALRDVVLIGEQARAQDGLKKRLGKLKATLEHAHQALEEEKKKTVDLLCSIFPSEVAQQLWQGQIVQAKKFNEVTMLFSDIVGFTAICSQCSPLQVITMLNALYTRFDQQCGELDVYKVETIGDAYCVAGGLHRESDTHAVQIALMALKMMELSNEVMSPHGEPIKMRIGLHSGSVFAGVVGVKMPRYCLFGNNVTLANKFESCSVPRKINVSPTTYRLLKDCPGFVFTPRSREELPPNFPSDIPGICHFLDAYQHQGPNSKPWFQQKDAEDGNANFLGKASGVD
As to the kind of experiment: Action on recombinant guanylate cyclase reporter cell line. The format is cell-based. As to conditions: in some cases mean values obtained from individual determinations. On the procedure:
B-2. Action on Recombinant Guanylate Cyclase Reporter Cell Line
The cellular action of the compounds according to the invention is determined on a recombinant guanylate cyclase reporter cell line, as described in F. Wunder et al., Anal. Biochem. 339, 104-112 (2005).
Representative values (MEC=minimal effective concentration) for the compounds according to the invention are shown in the following table (in some cases as mean values obtained from individual determinations): […]
`Cc1nc2c(OCC3CCCCC3)cccn2c1C(=O)NC(CO)CO` [Example 85, 8-(cyclohexylmethoxy)-N-(1,3-dihydroxypropan-2-yl)-2-methylimidazo[1,2-a]pyridine-3-carboxamide]: the “MEC (minimal effective concentration)” value came out at 0.38 µM.
To `Cc1nc2c(OCC3CCCCC3)cccn2c1C(=O)NC[C@H](O)CO` [Example 68, 8-(cyclohexylmethoxy)-N-[(2S)-2,3-dihydroxypropyl]-2-methylimidazo[1,2-a]pyridine-3-carboxamide] belongs 0.03 µM; to `CCCC[C@H](CO)NC(=O)c1c(C)nc2c(OCc3c(F)cccc3F)c(F)ccn12` [Example 177, 8-[(2,6-Difluorobenzyl)oxy]-7-fluoro-N-[(2R)-1-hydroxyhexan-2-yl]-2-methylimidazo[1,2-a]-pyridine-3-carboxamide], 1.0 µM.
To `Cc1nc2c(OCC3CCCCC3)cccn2c1C(=O)N[C@@H]1CCCC[C@H]1O` (racemic) [Example 78, (rac)-8-(cyclohexylmethoxy)-N-[(trans)-2-hydroxycyclohexyl]-2-methylimidazo[1,2-a]-pyridine-3-carboxamide] belongs 0.3 µM.
With `Cc1nc2c(OCc3c(F)cccc3F)cccn2c1C(=O)NCCC1(O)CCCCC1` [Example 116, 8-[(2,6-difluorobenzyl)oxy]-N-[2-(1-hydroxycyclohexyl)ethyl]-2-methylimidazo[1,2-a]pyridine-3-carboxamide], the “MEC (minimal effective concentration)” value worked out at 0.3 µM.
As for `Cc1nc2c(OCc3cccc(Cl)c3Cl)cccn2c1C(=O)NCCC1(O)CCCC1` [Example 47, 8-[(2,3-dichlorobenzyl)oxy]-N-[2-(1-hydroxycyclopentyl)ethyl]-2-methylimidazo[1,2-a]-pyridine-3-carboxamide], the figure is 0.3 µM.
`Cc1nc2c(OCc3c(F)cccc3F)cccn2c1C(=O)NC(CO)CCCC(F)(F)F` (single isomer, unassigned; ent-8) [Example 123, ent-8-[(2,6-Difluorobenzyl)oxy]-2-methyl-N-(6,6,6-trifluoro-1-hydroxyhexan-2-yl)imidazo[1,2-a]-pyridine-3-carboxamide]: the “MEC (minimal effective concentration)” value came out at 0.03 µM.
For `Cc1nc2c(OCC3CCCCC3)cccn2c1C(=O)NCCO` [Example 76, 8-(cyclohexylmethoxy)-N-(2-hydroxyethyl)-2-methylimidazo[1,2-a]pyridine-3-carboxamide formate], the “MEC (minimal effective concentration)” value came out at 0.3 µM.
To `Cc1cc(OCCC(C(F)(F)F)C(F)(F)F)c2nc(C)c(C(=O)NC(CCCC(F)(F)F)C(C)(C)O)n2c1` (racemic) [Example 170, rac-2,6-Dimethyl-N-(7,7,7-trifluoro-2-hydroxy-2-methylheptan-3-yl)-8-[4,4,4-trifluoro-3-(trifluoromethyl)butoxy]imidazo[1,2-a]pyridine-3-carboxamide] belongs 3.0 µM; to `Cc1nc2c(OCC3CCCCC3)cccn2c1C(=O)N[C@H](CO)C(C)C` [Example 93, 8-(cyclohexylmethoxy)-N-[(2S)-1-hydroxy-3-methylbutan-2-yl]-2-methylimidazo[1,2-a]pyridine-3-carboxamide], 1.0 µM; to `CCCC[C@H](CO)NC(=O)c1c(C)nc2c(OCCC(C)C)cc(C)cn12` [Example 166, N-[(2R)-1-Hydroxyhexan-2-yl]-2,6-dimethyl-8-(3-methylbutoxy)imidazo[1,2-a]pyridine-3-carboxamide], 1.0 µM.
As for `C[C@@H](CO)NC(=O)c1cnc2c(OCC3CCCCC3)cccn12` [Example 59, 8-(cyclohexylmethoxy)-N-[(2S)-1-hydroxypropan-2-yl]imidazo[1,2-a]pyridine-3-carboxamide], the figure is 3.0 µM.
To `CCOCC(CO)NC(=O)c1c(C)nc2c(OCc3c(F)cccc3F)cccn12` (racemic) [Example 160, rac-8-[(2,6-Difluorobenzyl)oxy]-N-(1-ethoxy-3-hydroxypropan-2-yl)-2-methylimidazo[1,2-a]-pyridine-3-carboxamide] belongs 0.3 µM.
As to `Cc1nc2c(OCc3ccccc3)cccn2c1C(=O)N[C@@H](C)CO` [Example 46, 8-(Benzyloxy)-N-[(2S)-1-hydroxypropan-2-yl]-2-methylimidazo[1,2-a]pyridine-3-carboxamide], the “MEC (minimal effective concentration)” value came out at 3.0 µM.
As for `COCC(O)CNC(=O)c1c(C)nc2c(OCC3CCCCC3)cccn12` (stereo not shown) [Example 79, 8-(cyclohexylmethoxy)-N-(2-hydroxy-3-methoxypropyl)-2-methylimidazo[1,2-a]pyridine-3-carboxamide], the figure is 0.3 µM; as for `Cc1cc(OCc2ncccc2F)c2nc(C)c(C(=O)NC(CCC(O)C(F)(F)F)C(C)(C)O)n2c1` (mixture of isomers) [Example 195, 8-[(3-fluoropyridin-2-yl)methoxy]-2,6-dimethyl-N-(7,7,7-trifluoro-2,6-dihydroxy-2-methylheptan-3-yl)imidazo[1,2-a]pyridine-3-carboxamide (stereoisomer mixture)], 10 µM; as for `Cc1cc(OCC2CC(F)(F)C2)c2nc(C)c(C(=O)NC(CCCC(F)(F)F)C(C)(C)O)n2c1` (racemic) [Example 176, rac-8-[(3,3-Difluorocyclobutyl)methoxy]-2,6-dimethyl-N-(7,7,7-trifluoro-2-hydroxy-2-methylheptan-3-yl)imidazo[1,2-a]pyridine-3-carboxamide], 3.0 µM.
As for `CCCC[C@@H](NC(=O)c1c(C)nc2c(OCc3c(F)cccc3F)cccn12)C(C)O` (stereo partly drawn) [Example 139, 8-[(2,6-Difluorobenzyl)oxy]-N-[(3R)-2-hydroxyheptan-3-yl]-2-methylimidazo[1,2-a]pyridine-3-carboxamide], the figure is 0.03 µM; as for `CCCC[C@H](CO)NC(=O)c1cnc2c(OCc3c(F)cccc3F)cccn12` [Example 62, 8-[(2,6-difluorobenzyl)oxy]-N-[(2R)-1-hydroxyhexan-2-yl]imidazo[1,2-a]pyridine-3-carboxamide], 0.3 µM; as for `Cc1nc2c(OCC3CCCCC3)cccn2c1C(=O)NC1(CO)CCCC1` [Example 92, 8-(cyclohexylmethoxy)-N-[1-(hydroxymethyl)cyclopentyl]-2-methylimidazo[1,2-a]pyridine-3-carboxamide], 1.0 µM.
To `CCCC[C@H](CO)NC(=O)c1c(C)nc2c(OCc3c(F)cccc3F)cc(Br)cn12` [Example 65, 6-bromo-8-[(2,6-difluorobenzyl)oxy]-N-[(2R)-1-hydroxyhexan-2-yl]-2-methylimidazo[1,2-a]pyridine-3-carboxamide] belongs 0.03 µM; to `CCCC[C@H](CO)NC(=O)c1c(C)nc2c(OCc3c(Cl)cccc3Cl)cccn12` [Example 8], 0.3 µM.
As to `Cc1nc2c(OCc3c(F)cccc3F)cccn2c1C(=O)NC(CO)CC(F)(F)F` (single isomer, unassigned; ent-8) [Example 121, ent-8-[(2,6-Difluorobenzyl)oxy]-2-methyl-N-(4,4,4-trifluoro-1-hydroxybutan-2-yl)imidazo[1,2-a]-pyridine-3-carboxamide], the “MEC (minimal effective concentration)” value was 0.03 µM.
As for `Cc1nc2c(OCC3CCCCC3)cccn2c1C(=O)N[C@H](CO)CC(C)C` [Example 95, 8-(cyclohexylmethoxy)-N-[(2S)-1-hydroxy-4-methylpentan-2-yl]-2-methylimidazo[1,2-a]pyridine-3-carboxamide], the figure is 3.0 µM.
As for `Cc1nc2c(OCc3c(F)cccc3F)cccn2c1C(=O)NCCC(C)O` (stereo not shown) [Example 28], the figure is 0.65 µM.

(Values after patent US8946215B2, “Hydroxy-substituted imidazo[1,2-a]pyridinecarboxamides and their use” (Bayer Pharma Aktiengesellschaft, priority 2012, dated 2015).)
